Common to all, as to type: biochemical
One assay addresses T1, MraYBS (Bacillus subtilis, UniProt Q03521).
T1 construct: MBP; made in house
T1 sequence (Q03521 1-324): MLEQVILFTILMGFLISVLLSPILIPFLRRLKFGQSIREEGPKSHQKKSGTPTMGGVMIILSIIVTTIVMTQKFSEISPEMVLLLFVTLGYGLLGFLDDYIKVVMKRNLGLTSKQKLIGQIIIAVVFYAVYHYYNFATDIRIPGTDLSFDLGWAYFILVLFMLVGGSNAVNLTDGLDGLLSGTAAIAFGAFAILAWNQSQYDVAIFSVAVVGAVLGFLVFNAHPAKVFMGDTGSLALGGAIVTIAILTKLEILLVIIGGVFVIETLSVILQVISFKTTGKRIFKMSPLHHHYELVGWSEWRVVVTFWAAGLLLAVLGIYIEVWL
As to the kind of experiment: MraY fluorescence enhancement assay (kinetics, inhibition). The following applies: WT MraYBS, 6 as the substrate. How it is done: (§1) Determine kinetic parameters by MraY fluorescence enhancement assay. The fluorescence enhancement assay was performed in 384-well plate as described by Bugg et al. with slight modifications.5 The reaction mixture containing MraYBS (10 μg/mL), C55P (200 μM) in 30 μL reaction buffer (30 mM Tris, 10 mM MgCl2, 10 mM NaCl, 0.1 mM Tween-20, 2.5% DMSO, pH 8.0) were pre-incubated at 37 °C for 15 min. The reactions were initiated by the addition of various concentrations of NBD-Park’s nucleotide 6 (0 to 160 μM). For inhibition study, a various concentrations of inhibitors were added before the addition of substrate 6. The continuous fluorescence increase over 60 min was monitored with λex 466 nm/λem 535 nm by fluorescence microplate reader (SpectraMax M5, Molecular Devices, LLC) at 37 °C. Linear regressions of increased fluorescent units (FLU) versus time (min) were used to calculate the initial velocities for each reaction. The kinetic parameters values (Ki, KM, and Vmax) were obtained by nonlinear regression analysis using the […] equation with the GraphPad Prism program (GraphPad Software, San

The target in assay [1] is T2, MraYBS F228A mutant (Bacillus subtilis, UniProt Q03521, F228A).
T2 construct: MBP; made in house
As to the kind of experiment: Fluorescent enhancement assay, mutant MraY. To be noted: 6 as the substrate. The protocol:
(§2) Site–directed mutagenesis of MraY. Site-directed mutagenesis of the B. subtilis MBP-tagged MraY enzyme was performed directly on the pMAL -BS-MraY-16 expression plasmid by using the “Quickchanged XL Site-Directed Mutagenesis Kit ’’ from stratagene and the oligonucleotides shown below. Mutations introduced in the mraY gene sequence were checked by DNA sequencing. […]
(§3) MraY-T51A-R 5’-[…]-3’
(§4) T53A MraY-T53A-F 5’-[…]-3’
(§5) MraY-T53A-R 5’-[…]-3’
(§6) K102A MraY-K102A-F 5’-[…]-3’
(§7) MraY-K102A-R 5’-[…]-3’
(§8) K226A Mray-K226A-F 5’-[…]-3’ […]
(§9) F228A MraY-F228A-F 5’-[…]-3’
(§10) MraY-F228A-R 5’-[…]-3’
(§11) Q271A Mray-Q271A-F 5’-[…]-3’
(§12) Mray-Q271A-R 5’-[…]-3’
(§13) R281A MraY-R281A-F 5’-[…]-3’
(§14) MraY-R281A-R 5’-[…]-3’
(§15) W297A MraY-W297A-F 5’-[…]-3’
(§16) MraY-W297A-R 5’-[…]-3’
as §1
(§17) (1 picture or pasted object on this page, not shown here)

Assay [2] deals with T3, MraYBS K102A mutant (Bacillus subtilis, UniProt Q03521, K102A).
T3 construct: MBP; made in house
As to the kind of experiment: Fluorescent enhancement assay, mutant MraY. To be noted: 6 as the substrate. The protocol: as §2, §3, §4, §5, §6, §7, §8, §9, §10, §11, §12, §13, §14, §15, §16, §1, §17

The target in the next assay is T4, MraYBS Q271A mutant (Bacillus subtilis, UniProt Q03521, Q271A).
T4 construct: MBP; made in house
As to the kind of experiment: Fluorescent enhancement assay, mutant MraY. The following applies: 6 as the substrate. How it is done:
as §2, §3, §4, §5, §6, §7, §8, §9, §10, §11, §12, §13, §14, §15, §16, §1, §17

For a further assay, the target named is T5, MraYBS T51A mutant (Bacillus subtilis, UniProt Q03521, T51A).
T5 construct: MBP; made in house
Kind of assay: Fluorescent enhancement assay, mutant MraY. The following applies: 6 as the substrate. The protocol:
as §2, §3, §4, §5, §6, §7, §8, §9, §10, §11, §12, §13, §14, §15, §16, §1, §17

For assay [3], the target named is T6, MraYBS T53A mutant (Bacillus subtilis, UniProt Q03521, T53A).
T6 construct: MBP; made in house
Kind of assay: Fluorescent enhancement assay, mutant MraY. To be noted: 6 as the substrate. How it is done:
as §2, §3, §4, §5, §6, §7, §8, §9, §10, §11, §12, §13, §14, §15, §16, §1, §17

The target of assay [4] is T7, MraYBS W297A mutant (Bacillus subtilis, UniProt Q03521, W297A).
T7 construct: MBP; made in house
Kind of assay: Fluorescent enhancement assay, mutant MraY. The following applies: 6 as the substrate. The protocol:
as §2, §3, §4, §5, §6, §7, §8, §9, §10, §11, §12, §13, §14, §15, §16, §1, §17

For assay [5], the target named is T6, MraYBS T53A mutant. As to the kind of experiment: HPLC-based MraY functional assay, mutant MraY. The following applies: consumption of 6 in one-hour reaction. The protocol: (§18) The purified MraY from Bacillus subtilis was prepared as described in our previous reports. For 5 and 7–10, the reaction mixture containing MraYBS (10 μg/mL), C55P (200 μM) in 40 μL reaction buffer (30 mM Tris, 10 mM MgCl2, 10 mM NaCl, 0.1 mM Tween-20, 2.5% DMSO, pH 8.0) were pre-incubated at 37 °C for 15 min. The reactions were initiated by the addition of Park’s nucleotide analogues (10 μM) and incubated at 37 °C for 1 h. The reaction mixtures were added by uridine (0.01 mg/mL) as the internal standard and heated to 100 °C to stop the transferring reaction. The samples were analyzed by RP-C18 HPLC with gradient elution of 0.25 M NH4HCO3(aq)/15% MeOH in water (100:0 to 0:100) at a flow rate of 1 mL/min over 45 min, and the peaks of substrates were monitored at UV 260 nm. […] The reaction mixtures were heated to 100 °C to stop the transferring reaction, and samples were analyzed by an anion-exchange column (SAX1, Supelco Co., 5 μm, 4.6 × 250 mm) with a linear gradient elution of NH4OAc (20 mM to 1 M in MeOH) at a flow rate of 1.0 mL/min over 30 min. The fluorescent substrates were monitored with λex 466 nm/λem 535 nm by fluorescence detector. […]

The target of assay [6] is T3, MraYBS K102A mutant. As to the kind of experiment: HPLC-based MraY functional assay, mutant MraY. To be noted: consumption of 6 in one-hour reaction. The protocol:
as §18

Assay [7] concerns the target T2, MraYBS F228A mutant. As to the kind of experiment: HPLC-based MraY functional assay, mutant MraY. To be noted: consumption of 6 in one-hour reaction. How it is done:
as §18

For another assay, the target named is T8, MraYBS R281A mutant (Bacillus subtilis, UniProt Q03521, R281A).
T8 construct: MBP; made in house
Kind of assay: HPLC-based MraY functional assay, mutant MraY. The following applies: consumption of 6 in one-hour reaction. How it is done: as §18

Assay [8] has as its target T7, MraYBS W297A mutant. Kind of assay: HPLC-based MraY functional assay, mutant MraY. The following applies: consumption of 6 in one-hour reaction. The protocol: as §18

In the case of `CC(=O)N[C@H]1[C@@H](OP(=O)(O)OP(=O)(O)OC[C@H]2O[C@@H](n3ccc(=O)[nH]c3=O)[C@H](O)[C@@H]2O)O[C@H](CO)[C@@H](O)[C@@H]1O[C@H](C)C(=O)N[C@@H](C)C(=O)N[C@H](CCC(=O)N[C@@H](CCCCNC(=O)CCCCCNc1ccc([N+](=O)[O-])c2nonc12)C(=O)N[C@H](C)C(=O)N[C@H](C)C(=O)O)C(=O)O` [Compound 6, NBD-Park’s nucleotide], the Vmax at MraYBS worked out at 18 ± 0.8 FLU/min; on MraYBS F228A mutant [1], 10 ± 1.5 FLU/min; at MraYBS K102A mutant [2] it was 5 ± 0.2 FLU/min; at MraYBS Q271A mutant it was 6 ± 1.7 FLU/min; on MraYBS T51A mutant it was 5 ± 0.2 FLU/min; at MraYBS T53A mutant [3] it was 7 ± 0.8 FLU/min. In addition, on MraYBS W297A mutant [4], the Vmax was determined as 4 ± 0.4 FLU/min. The Relative activity at MraYBS T53A mutant [5] is on record as 18%; on MraYBS K102A mutant [6], 33%; on MraYBS F228A mutant [7] it was 98%; at MraYBS R281A mutant it was 81%; on MraYBS W297A mutant [8], 17%.

(Values after article PMC4987650, “Structural Investigation of Park’s Nucleotide on Bacterial Translocase MraY: Discovery of Unexpected MraY Inhibitors” (Scientific Reports, 2016).)
